This passage reports DC50 and inhibition results from patent publication US20240287037A1, “CYCLOALKYL COMPOUNDS AND PHARMACEUTICAL COMPOSITIONS THAT MODULATE IKZF2” (Plexium, Inc., priority 2021, published 2024).

Some results are limits rather than exact numbers.

As usually defined, the DC50 is the midpoint of the concentration-degradation curve. Read a high DC50 as degradation only at high concentration. A word on the inhibition: it is the percentage by which the read-out fell short of the control. A low value points to little suppression.

Type in all cases: cell-based
In one experiment the target is GSPT1 (Homo sapiens (Human), UniProt P15170+Q96SW2). Put plainly: GSPT1 reporter degradation assay (HEK293 hGSPT1 HiBiT-tagged cells). The settings on record: 24 hour incubation. As for the experimental part: HEK293_hGSPT1_HiBiT-tagged cells were generated using CRISPR-Cas12a technology. Briefly, ˜400,000 HEK293 cells were transiently co-transfected with precomplexed ribonuclear proteins (RNPs) consisting of […] of crRNA (IDT), […] of Cas12a protein (IDT), 3 μg of ssODN donor (IDT; AltRTM modifications), 78 pmol of electroporation enhancer (IDT), and 200 ng of pMaxGFP (Lonza). The transfection was performed via nucleofection (Lonza, 4D-Nucleofector X-unit) using solution P3 and program CM-130 in a (20 μL) cuvette. Five days post-nucleofection, cells were single-cell-sorted for GFP+ (transfected) cells by FACs in 96-well plates and clonally selected. Clones were screened and verified for the desired modification via targeted deep sequencing using gene-specific primers with partial Illumina adapter overhangs as previously described. In brief, clonal cell pellets were harvested, lysed, and used to generate gene-specific amplicons with partial Illumina adapters in PCR #1. Amplicons were indexed in PCR #2 and pooled with other targeted amplicons for other loci to create sequence diversity. Additionally, 10% PhiX sequencing control V3 (Illumina) was added to the pooled amplicon library prior to running the sample on a Miseq Sequencer System (Illumina) to generate paired 2×250 bp reads. Samples were demultiplexed using the index sequences, fastq files were generated, and NGS analysis was performed using CRIS.py.
GSPT1, sequence (P15170 whole entry): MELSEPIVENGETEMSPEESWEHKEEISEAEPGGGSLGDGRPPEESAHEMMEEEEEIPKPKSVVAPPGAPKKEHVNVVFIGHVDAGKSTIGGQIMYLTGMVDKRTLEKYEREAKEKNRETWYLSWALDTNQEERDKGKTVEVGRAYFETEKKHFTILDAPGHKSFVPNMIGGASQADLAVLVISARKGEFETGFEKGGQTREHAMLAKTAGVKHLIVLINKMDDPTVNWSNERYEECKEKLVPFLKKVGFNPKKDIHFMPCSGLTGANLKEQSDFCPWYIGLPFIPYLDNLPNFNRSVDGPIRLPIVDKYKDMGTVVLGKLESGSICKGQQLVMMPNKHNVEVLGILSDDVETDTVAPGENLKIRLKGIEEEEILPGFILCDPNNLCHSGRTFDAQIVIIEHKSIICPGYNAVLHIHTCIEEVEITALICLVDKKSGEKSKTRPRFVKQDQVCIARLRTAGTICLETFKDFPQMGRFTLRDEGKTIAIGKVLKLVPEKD
GSPT1, sequence (Q96SW2 whole entry): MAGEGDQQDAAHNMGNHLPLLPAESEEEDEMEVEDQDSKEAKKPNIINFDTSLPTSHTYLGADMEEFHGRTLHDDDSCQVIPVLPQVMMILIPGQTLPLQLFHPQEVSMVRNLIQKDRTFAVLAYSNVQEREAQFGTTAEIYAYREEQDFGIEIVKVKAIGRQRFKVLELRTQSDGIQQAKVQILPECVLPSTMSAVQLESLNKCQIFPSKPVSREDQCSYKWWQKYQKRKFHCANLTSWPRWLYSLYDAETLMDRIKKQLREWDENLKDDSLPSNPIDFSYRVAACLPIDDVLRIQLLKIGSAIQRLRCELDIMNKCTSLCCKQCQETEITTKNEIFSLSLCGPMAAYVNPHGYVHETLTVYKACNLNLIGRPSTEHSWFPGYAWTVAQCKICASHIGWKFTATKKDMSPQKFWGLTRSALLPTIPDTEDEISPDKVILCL
GSPT1, sequence (Q16531 whole entry partner): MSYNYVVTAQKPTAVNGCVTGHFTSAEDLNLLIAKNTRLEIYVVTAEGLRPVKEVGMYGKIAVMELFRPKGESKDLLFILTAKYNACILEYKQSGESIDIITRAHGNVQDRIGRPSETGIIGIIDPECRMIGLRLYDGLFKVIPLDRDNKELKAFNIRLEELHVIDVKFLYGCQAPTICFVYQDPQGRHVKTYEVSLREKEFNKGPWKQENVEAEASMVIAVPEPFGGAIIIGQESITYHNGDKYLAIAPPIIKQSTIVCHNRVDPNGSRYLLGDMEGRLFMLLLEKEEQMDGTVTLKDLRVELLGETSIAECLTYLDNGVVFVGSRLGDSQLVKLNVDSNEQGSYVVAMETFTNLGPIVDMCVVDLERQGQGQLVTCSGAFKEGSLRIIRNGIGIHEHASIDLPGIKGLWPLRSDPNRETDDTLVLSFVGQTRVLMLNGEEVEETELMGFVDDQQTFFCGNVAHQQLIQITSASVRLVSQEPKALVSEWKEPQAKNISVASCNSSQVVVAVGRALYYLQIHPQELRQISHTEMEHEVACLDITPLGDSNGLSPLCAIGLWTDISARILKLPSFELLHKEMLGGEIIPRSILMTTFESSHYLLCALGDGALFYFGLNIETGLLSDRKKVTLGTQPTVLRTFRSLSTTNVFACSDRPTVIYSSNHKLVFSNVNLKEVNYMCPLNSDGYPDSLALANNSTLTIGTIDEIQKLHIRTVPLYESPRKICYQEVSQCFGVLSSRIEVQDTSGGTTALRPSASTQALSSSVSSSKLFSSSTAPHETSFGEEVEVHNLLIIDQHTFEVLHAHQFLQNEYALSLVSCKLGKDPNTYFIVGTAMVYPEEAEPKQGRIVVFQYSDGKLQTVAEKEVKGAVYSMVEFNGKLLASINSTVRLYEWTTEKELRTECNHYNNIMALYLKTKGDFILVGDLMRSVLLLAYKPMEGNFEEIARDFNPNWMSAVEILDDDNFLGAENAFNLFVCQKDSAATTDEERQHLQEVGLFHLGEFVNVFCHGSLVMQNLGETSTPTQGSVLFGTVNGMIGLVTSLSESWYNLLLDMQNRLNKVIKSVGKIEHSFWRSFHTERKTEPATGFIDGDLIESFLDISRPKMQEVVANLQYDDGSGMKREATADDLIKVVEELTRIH
The GSTP1 degradation assay was carried out by harvesting the HEK 293T reporter cell lines and resuspending the cells in media formulated for reduced background fluorescence (FluoroBrite; Thermo Fisher). The respective cell lines were seeded at a density of 8,000 cells/well into white-opaque 384-well optical grade assay tissue culture plates (Greiner 781080-20). The cells were incubated overnight at 37° C. to allow for attachment to the assay plate. Dilutions of the compounds were prepared in DMSO from 10 mM compound stocks. […] Plates were centrifuged at 320×g for 2 minutes at room temperature, and subsequently incubated at 37° C.
After 24 hour incubation with the compounds, the plates were allowed to cool to room temperature for 10 minutes. 30 μL of HiBiT lytic buffer+1:50 HiBiT substrate Solution were added to each well. Plates were centrifuged at 320×g for 2 minutes at room temperature and then incubated with shaking at room temperature for 10 minutes covered with foil. Plates were read on a CLARIOstar microplate reader (BMG LabTech), measuring at 450 nm (donor emission) and 610 nm or 630 nm (acceptor emission). The DC50 values were determined by regression to best fit four-parameter logistic curves using GraphPad Prism.
(HiBiT is a short tag that completes a luciferase, so light tracks the accessible tagged protein.)

A further experiment concerns the target IKZF3 (Aiolos) (Homo sapiens (Human), UniProt Q96SW2+Q9UKT9). Put plainly: IKZF3 reporter degradation assay (HEK 293T IKZF3-mNeonGreen reporter cell line). The settings on record: HEK 293T reporter cells, 24 hour incubation. An excerpt: (§1) Polycistronic plasmids were constructed for the mammalian expression of fluorescent reporter fusions of human transcription factors IKZF1 (Ikaros), IKZF2 (Helios), and IKZF3 (Aiolos). The respective protein sequences had their C-terminal end joined to a GGGGS linker repeated three times followed by mNeonGreen, P2A sequence, and mScarlet. The DNA sequences of the open reading frames are as follows:
(§2) IKZF1, IKZF2, and IKZF3 constructs were cloned into the UCOE Hygromycin expression vectors (Millipore Sigma). Reporter constructs were transfected using cationic lipid reagents into adherent HEK 293T cells and stable integrants were selected by treatment with 200 μg/mL hygromycin B. Clonal populations were obtained from the population of stable integrants either by limiting dilution or fluorescence activated cell sorting.
(§3) The clonal stable cell lines were maintained under constant 200 μg/mL hygromycin B selection while being passaged for use in the degradation assays. […] The fluorescence intensity of the IKZF1/2/3-mNeonGreen (FITC channel) and mScarlet (PE channel) reporters were routinely analyzed by flow cytometry to confirm consistent expression levels between experiments.
(§4) The IKZF1/IKZF2/IKZF3 degradation assays were carried out by harvesting the HEK 293T reporter cell lines and resuspending the cells in media formulated for reduced background fluorescence (FluoroBrite; Thermo Fisher). The respective cell lines were seeded at a density of 4000 cells/well into black-walled 384-well optical grade assay tissue culture plates. The cells were incubated overnight at 37° C. to allow for attachment to the assay plate. Dilutions of the compounds were prepared in DMSO from 10 mM compound stocks. The assay plates were treated with appropriate concentrations of the compounds by dispensing the DMSO dilutions in quadruplicate wells with an upper limit of 0.5% final DMSO.
(§5) After 24 hour incubation with the compounds, the assay plates were imaged on an ImageXpress Pico microscopy system (cells maintained at 37° C. during imaging) to obtain the fluorescent readouts. The assay plates were imaged in the FITC and Tetramethylrhodamine (TRITC) channels to obtain the mNeonGreen fluorescence intensity (reporter degradation data) and mScarlet fluorescence intensity (for cell segmentation). 293T-IKZF1 and 293T-IKZF3 reporter cell lines were imaged with exposures of 500 milliseconds (ms) for both FITC and TRITC channels, while the 293T-IKZF2 reporter cell line was imaged with exposures of 1000 ms for FITC and 1250 ms for TRITC. The resulting data was analyzed with Cell Reporter Xpress software using the 2-channel cell scoring analysis with a “percent positive” readout. The TRITC channel was selected for the “nuclei” segmentation with a threshold of 20 while the FITC channel was selected for the “Marker 1” segmentation and a threshold of 100 for the IKZF and IKZF3 reporter lines. […] The minimum segmentation width was set to 6 micrometers and the maximum segmentation width was set to 15 micrometers for all cell lines. The DC50 calculations were determined by regression to best fit four-parameter logistic curves using GraphPad Prism.

The target in a further experiment is IKZF2 (Helios) (Homo sapiens (Human), UniProt Q96SW2+Q9UKS7). Put plainly: IKZF2 reporter degradation assay (HEK 293T IKZF2-mNeonGreen reporter cell line). The settings on record: 24 hour incubation; for inhibition at 1 µM: HEK-293T, 24 h.
IKZF2 (Helios), sequence (Q9UKS7 whole entry): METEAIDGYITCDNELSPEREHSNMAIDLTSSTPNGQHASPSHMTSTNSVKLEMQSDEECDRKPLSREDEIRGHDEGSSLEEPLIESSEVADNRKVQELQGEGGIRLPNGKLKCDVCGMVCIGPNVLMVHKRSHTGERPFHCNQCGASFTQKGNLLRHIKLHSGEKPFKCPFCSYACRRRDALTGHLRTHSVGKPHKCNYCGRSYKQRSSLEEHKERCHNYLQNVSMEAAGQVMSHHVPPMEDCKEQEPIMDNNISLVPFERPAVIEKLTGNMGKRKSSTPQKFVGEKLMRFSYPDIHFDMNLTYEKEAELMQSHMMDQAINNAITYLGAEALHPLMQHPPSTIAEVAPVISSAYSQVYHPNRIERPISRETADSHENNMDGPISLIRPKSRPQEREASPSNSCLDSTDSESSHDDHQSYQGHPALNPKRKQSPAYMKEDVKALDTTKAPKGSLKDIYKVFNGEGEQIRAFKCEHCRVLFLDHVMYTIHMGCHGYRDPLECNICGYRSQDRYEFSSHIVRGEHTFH
IKZF2 (Helios), sequence (Q96SW2 whole entry): as the sequence (Q96SW2 whole entry) above
IKZF2 (Helios), sequence (Q16531 whole entry partner): as the sequence (Q16531 whole entry partner) above
Text: as §1, §2, §3, §4, §5

Where [1] appears, read: Table 3, HEK 293T reporter cells.
[2] abbreviates: second (untitled) table after Table 3.

IKZF3 (Aiolos), sequence (Q9UKT9 whole entry, the tested form may be a part): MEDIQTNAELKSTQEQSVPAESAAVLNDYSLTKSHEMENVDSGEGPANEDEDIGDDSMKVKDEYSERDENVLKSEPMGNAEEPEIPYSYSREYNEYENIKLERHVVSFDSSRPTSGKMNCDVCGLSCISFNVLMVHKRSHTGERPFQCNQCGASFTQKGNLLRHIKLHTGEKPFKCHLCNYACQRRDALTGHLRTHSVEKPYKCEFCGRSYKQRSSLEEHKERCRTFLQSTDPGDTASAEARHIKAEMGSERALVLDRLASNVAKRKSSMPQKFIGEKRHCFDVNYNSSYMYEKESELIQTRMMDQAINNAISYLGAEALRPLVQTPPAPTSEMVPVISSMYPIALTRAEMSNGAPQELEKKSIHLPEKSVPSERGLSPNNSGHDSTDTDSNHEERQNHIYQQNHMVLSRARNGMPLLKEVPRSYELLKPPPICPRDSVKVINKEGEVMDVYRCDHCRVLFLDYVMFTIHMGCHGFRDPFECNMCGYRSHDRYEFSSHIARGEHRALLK
IKZF3 (Aiolos), sequence (Q96SW2 whole entry, the tested form may be a part): as the sequence (Q96SW2 whole entry) above
IKZF3 (Aiolos), sequence (Q16531 whole entry partner, the tested form may be a part): as the sequence (Q16531 whole entry partner) above

`O=C1CCC(N2Cc3cc(O[C@H]4CCCC[C@@H]4N4CC(C5CCC5)C4)c(F)cc3C2=O)C(=O)N1` (stereo partly drawn) [Compound 27, 3-(5-(((1S,2S)-2-(3-cyclobutylazetidin-1-yl)cyclohexyl)oxy)-6-fluoro-1-oxoisoindolin-2-yl)piperidine-2,6-dione]: the DC50 at GSPT1 was > 30 µM; on IKZF3 (Aiolos), > 30 µM; on IKZF2 (Helios) (HEK 293T reporter cells), 0.02 µM. Besides, the inhibition at 1 µM on IKZF2 (Helios) (setting [1]) and against IKZF2 (Helios) (setting [2]) was 84.1% each time.
`O=C1CCC(N2Cc3cc(O[C@H]4CCCC[C@@H]4N4CC(C5CC5)C4)ccc3C2=O)C(=O)N1` (stereo partly drawn) [Compound 3, 3-(5-(((1S,2S)-2-(3-cyclopropylazetidin-1-yl)cyclohexyl)oxy)-1-oxoisoindolin-2-yl)piperidine-2,6-dione]: the half-maximal degradation concentration (DC50) at GSPT1 was > 30 µM; at IKZF3 (Aiolos) it was > 30 µM; at IKZF2 (Helios) (HEK 293T reporter cells) it was 0.012 µM. Also, the inhibition at 1 µM against IKZF2 (Helios) (setting [1]) and against IKZF2 (Helios) (setting [2]) was 67.7% throughout.
For the compound `CCOC1CCC(C2CN([C@H]3CCCC[C@@H]3Oc3ccc4c(c3)CN(C3CCC(=O)NC3=O)C4=O)C2)CC1` (stereo partly drawn) [Compound 19, 3-(5-(((1S,2S)-2-(3-(4-ethoxycyclohexyl)azetidin-1-yl)cyclohexyl)oxy)-1-oxoisoindolin-2-yl)piperidine-2,6-dione], the DC50 at GSPT1 was > 30 µM; at IKZF3 (Aiolos), > 30 µM; on IKZF2 (Helios) (HEK 293T reporter cells), 0.002 µM. Further, the inhibition at 1 µM at IKZF2 (Helios) (setting [1]) and at IKZF2 (Helios) (setting [2]) was 72.8% in each case.
As for `O=C1CCC(N2Cc3c(ccc(O[C@H]4CCCC[C@@H]4N4CC(C5CCC5)C4)c3F)C2=O)C(=O)N1` (stereo partly drawn) [Compound 25, 3-(5-(((1S,2S)-2-(3-cyclobutylazetidin-1-yl)cyclohexyl)oxy)-4-fluoro-1-oxoisoindolin-2-yl)piperidine-2,6-dione], the DC50 at GSPT1 was > 30 µM; on IKZF3 (Aiolos), > 30 µM; on IKZF2 (Helios) (HEK 293T reporter cells) it was 0.01 µM. Further, the inhibition at 1 µM against IKZF2 (Helios) (setting [1]) and against IKZF2 (Helios) (setting [2]) was 86.7% throughout.
As to `O=C1CCC(N2Cc3cc(O[C@H]4CCCC[C@@H]4N4CC(C5CCCC5)C4)ccc3C2=O)C(=O)N1` (stereo partly drawn) [Compound 6, 3-(5-(((1S,2S)-2-(3-cyclopentylazetidin-1-yl)cyclohexyl)oxy)-1-oxoisoindolin-2-yl)piperidine-2,6-dione], the results for the 50% degradation concentration (DC50) on GSPT1, at IKZF3 (Aiolos) and at IKZF2 (Helios) (HEK 293T reporter cells) were > 30 µM, > 30 µM and 0.003 µM, respectively. For the same compound, the inhibition at 1 µM on IKZF2 (Helios) (setting [1]) and against IKZF2 (Helios) (setting [2]) was 86.3% each time.
